Experimental data from patent US9889094B2, “Particle size reduction of an antimuscarinic compound” (CHIESI FARMACEUTICI S.p.A., priority 2013, dated 2018).
Where two headings read alike, the source gives them in different places.

Tests used:
[1] = Scanning Electron Microscopy (SEM) of particles; type: physicochemical; details: after the homogenization step, Example 1 (2H,3H-decafluoropentane); platelet-like particles
[2] = Specific surface area by BET nitrogen adsorption; type: physicochemical; details: Example 1 powder; for BET SSA: storage 22±2° C., 60% relative humidity
Method: Advantageously, the specific surface area of the obtained particles upon drying and sieving, is from to 8 m^2/g, advantageously from to 7 m^2/g, preferably from 3 to 6 m^2/g. The Specific Surface Area is determined by Brunauer-Emmett-Teller (BET) nitrogen adsorption method according to a procedure known in the art.
Alternatively, the physical stability may be measured using the specific surface area of the drug particles analysed by adsorption analysis, BET surface measurement, according to a method known to the skilled person.
Specific surface area (SSA) of the dried and sieved particles, analyzed by BET nitrogen adsorption method, was determined to be of about 4.3 m^2/g.

[3] = Crystallinity / polymorphic form by X-ray powder diffraction and DSC; type: physicochemical; details: for XRD: Example 1 powder, storage 22±2° C., 60% relative humidity
[4] = Crystallinity / polymorphic form by DVS; type: physicochemical; details: Example 4 final product (dichloromethane) compared to the initial coarse drug
[5] = Drying and re-dispersion after wet bead milling in acetone (comparative example); type: physicochemical; details: wet bead milled in acetone, 200 rpm, 60 minutes; dried at 25° C. under low vacuum; white to off-white solid cake
Method: The vessel was sealed and the suspension homogenized into the planetary mill apparatus disclosed in WO 2007/020407, which is incorporated herein by reference in its entirety, at a disc speed of 200 rpm for 60 minutes at ambient temperature and pressure. After 60 minutes, the resulting drug suspension is separated from the milling media by filtering through a nylon mesh and the resulting drug suspension loaded into a drying tray.

[6] = Example 1 powder (2H,3H-decafluoropentane), storage 22±2° C., 60% relative humidity, time 0
[7] = Example 1 powder, storage 22±2° C., 60% relative humidity, 1 W
[8] = Example 1 powder, storage 22±2° C., 60% relative humidity, 2 W
[9] = Example 1 powder, storage 22±2° C., 60% relative humidity, 3 M
[10] = Example 1 powder, storage 22±2° C., 60% relative humidity, 4 W
[11] = Example 4 powder (dichloromethane), time 0
[12] = Example 5 powder (perfluoroheptane isomer mixture), 45 minutes processing, time 0

average particle size by SEM [1]: below 5 μm | Specific surface area (SSA) ([2]; dried and sieved particles): about 4.3 m^2/g | BET SSA ([2]; 1 W): 4.198 m^2/g | BET SSA ([2]; 2 W): 4.210 m^2/g | BET SSA ([2]; 3 M): 4.00 m^2/g | BET SSA ([2]; 4 W): 4.086 m^2/g | BET SSA ([2]; time 0): 4.326 m^2/g | XRD ([3]; 4 W): Crystalline | XRD ([3]; time 0): Crystalline | PSD d(v0.1) [6]: 0.71 | PSD d(v0.5) [6]: 1.85 | PSD d(v0.9) [6]: 4.77 | d(v0.5) (Example 1 powder after micronization and drying (2H,3H-decafluoropentane)): 1.85 μm | change of particle size upon storage (Example 1 powder, storage 22±2° C., 60% relative humidity, up to 3 months): does not significantly change | PSD d(v0.1) [7]: 0.72 | PSD d(v0.5) [7]: 1.92 | PSD d(v0.9) [7]: 5.03 | PSD d(v0.1) [8]: 0.72 | PSD d(v0.5) [8]: 1.88 | PSD d(v0.9) [8]: 4.95 | PSD d(v0.1) [9]: 0.75 | PSD d(v0.5) [9]: 2.07 | PSD d(v0.9) [9]: 5.26 | PSD d(v0.1) [10]: 0.72 | PSD d(v0.5) [10]: 1.93 | PSD d(v0.9) [10]: 4.97 | PSD d(v0.1) [11]: 0.80 | PSD d(v0.5) [11]: 2.06 | PSD d(v0.9) [11]: 6.46 | d(v0.5) (Example 4 powder after micronization and drying (dichloromethane)): 2.06 μm | PSD d(v0.1) [12]: 0.66 | PSD d(v0.5) [12]: 1.70 | PSD d(v0.9) [12]: 4.31
Structure (SMILES): C[N+]1(C)CCC(OC(=O)C(O)(c2ccccc2)C2CCCC2)C1 (racemic) [rac-glycopyrronium bromide, (3S,2′R), (3R,2′S)-3-[(cyclopentylhydroxyphenylacetyl)oxy]-1,1-dimethylpyrrolidinium bromide]
change in degree of crystallinity or polymorphic form (XPRD and DSC) ([3]; Example 1 final product compared to the initial coarse drug): no change in degree of crystallinity or polymorphic form | change in degree of crystallinity or polymorphic form (DVS) [4]: no change in degree of crystallinity or polymorphic form | re-dispersibility of dried product [5]: could not be re-dispersed under mechanical agitation
